Data from ChEMBL document CHEMBL3992548, “Design, synthesis and biological evaluation of 2,4-disubstituted oxazole derivatives as potential PDE4 inhibitors” (Bioorg Med Chem, 2017).

What was measured:
Rattus norvegicus = test: Anti-inflammatory activity in Sprague-Dawley rat model of LPS-induced asthma/COPD assessed as inhibition of neutrophilia in lungs at 10 mg/kg, po administered 30 mins prior to LPS challenge for 40 mins measured after 6 hrs relative to control; assay type: functional
PBMC = test: Anti-inflammatory activity in human PBMC assessed as inhibition of LPS-induced TNFalpha secretion preincubated for 30 mins followed by LPS stimulation for 18 hrs by TR-FRET assay; assay type: functional, cell-based
Mus musculus = test: Anti-inflammatory activity in LPS-induced Swiss albino mouse sepsis model assessed as inhibition of TNF-alpha release in serum at 10 mg/kg, po administered 30 mins prior to LPS challenge measured after 90 mins by ELISA relative to control; assay type: functional
[1] = target: 3',5'-cyclic-AMP phosphodiesterase 4B (Homo sapiens, UniProt Q07343); test: Inhibition of human U937 cells-derived PDE4B using [3H]cAMP as substrate after 30 mins
[2] = target: 3',5'-cyclic-AMP phosphodiesterase 4D (Homo sapiens, UniProt Q08499); test: Inhibition of human U937 cells-derived PDE4D using [3H]cAMP as substrate after 30 mins
Sequence of 3',5'-cyclic-AMP phosphodiesterase 4D (Q08499 whole entry): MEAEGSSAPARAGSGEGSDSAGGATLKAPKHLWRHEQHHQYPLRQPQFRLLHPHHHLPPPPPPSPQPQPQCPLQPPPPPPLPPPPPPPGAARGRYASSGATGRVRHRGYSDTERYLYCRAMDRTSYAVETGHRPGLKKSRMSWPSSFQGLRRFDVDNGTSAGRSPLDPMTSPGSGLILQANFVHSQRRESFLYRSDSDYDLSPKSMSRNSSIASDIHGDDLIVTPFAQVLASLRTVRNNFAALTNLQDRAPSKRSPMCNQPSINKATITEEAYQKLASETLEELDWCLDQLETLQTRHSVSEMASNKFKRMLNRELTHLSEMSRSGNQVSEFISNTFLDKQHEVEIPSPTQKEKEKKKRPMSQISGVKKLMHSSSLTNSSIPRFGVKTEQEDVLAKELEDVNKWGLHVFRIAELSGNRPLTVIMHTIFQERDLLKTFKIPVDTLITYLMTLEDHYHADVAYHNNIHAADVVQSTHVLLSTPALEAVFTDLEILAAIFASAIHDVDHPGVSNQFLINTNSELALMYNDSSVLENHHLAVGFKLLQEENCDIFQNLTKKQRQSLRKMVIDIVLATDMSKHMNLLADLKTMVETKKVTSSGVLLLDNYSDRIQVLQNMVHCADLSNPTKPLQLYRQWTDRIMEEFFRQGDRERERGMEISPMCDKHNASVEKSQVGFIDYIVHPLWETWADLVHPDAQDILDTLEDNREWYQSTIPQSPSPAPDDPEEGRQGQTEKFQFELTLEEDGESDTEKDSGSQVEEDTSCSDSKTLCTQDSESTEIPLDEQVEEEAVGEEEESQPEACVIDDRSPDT

Sequence of 3',5'-cyclic-AMP phosphodiesterase 4B (Q07343 whole entry): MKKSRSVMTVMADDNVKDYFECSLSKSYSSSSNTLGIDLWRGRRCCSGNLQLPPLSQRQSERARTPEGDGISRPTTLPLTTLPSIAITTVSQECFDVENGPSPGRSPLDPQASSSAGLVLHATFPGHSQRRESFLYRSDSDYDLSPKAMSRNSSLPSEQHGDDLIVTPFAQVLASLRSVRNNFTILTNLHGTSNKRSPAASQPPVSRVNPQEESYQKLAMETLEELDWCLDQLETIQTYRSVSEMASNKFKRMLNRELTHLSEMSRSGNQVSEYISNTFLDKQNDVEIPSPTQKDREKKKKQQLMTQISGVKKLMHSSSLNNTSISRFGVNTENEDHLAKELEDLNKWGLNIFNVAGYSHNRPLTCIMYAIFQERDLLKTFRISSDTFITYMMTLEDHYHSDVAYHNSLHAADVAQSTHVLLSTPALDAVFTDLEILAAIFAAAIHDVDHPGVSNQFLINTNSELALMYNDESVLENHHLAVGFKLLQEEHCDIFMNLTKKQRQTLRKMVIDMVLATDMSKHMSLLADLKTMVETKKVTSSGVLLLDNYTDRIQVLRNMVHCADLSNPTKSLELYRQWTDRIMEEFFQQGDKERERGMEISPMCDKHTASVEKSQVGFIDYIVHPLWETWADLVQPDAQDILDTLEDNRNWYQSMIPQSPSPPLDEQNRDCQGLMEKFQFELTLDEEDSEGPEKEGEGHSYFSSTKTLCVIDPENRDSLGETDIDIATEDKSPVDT

Row | IC50 [1] [µM] | IC50 [2] [µM] | SMILES | inhibition in vivo at 10 mg/kg (Rattus norvegicus) [%] | IC50 (PBMC) [µM] | inhibition in vivo at 10 mg/kg (Mus musculus) [%]
1 |  |  | COc1ccc(C2CNC(=O)C2)cc1OC1CCCC1 (stereo not drawn) [ROLIPRAM] | 30.9 | 18.6 | 40.8
2 | 54.8 |  | Cc1cc(C)n(C(=O)c2coc(-c3ccc(Br)cc3)n2)n1 |  | 168 | 
3 | 17.5 |  | Cc1ccc(-c2nc(C(=O)n3cccn3)co2)cc1 |  | 72.4 | 
4 | 4.1 |  | Cc1cc(C)n(C(=O)c2coc(-c3ccc(Cl)cc3)n2)n1 |  | 27.6 | 
5 | 18.4 |  | O=C(c1coc(-c2ccc(O)cc2)n1)n1cccn1 |  | 75.5 | 
6 | 85.6 |  | O=C(c1coc(-c2ccccc2O)n1)n1cccn1 |  | 205 | 
7 | 39.7 |  | O=C(c1coc(-c2cccc(O)c2)n1)n1cccn1 |  | 88.4 | 
8 | 8.4 |  | Cc1cc(C)n(C(=O)c2coc(-c3ccc(F)cc3)n2)n1 |  | 29.7 | 
9 | 6.7 |  | Cc1ccc(-c2nc(C(=O)n3nc(C)cc3C)co2)cc1 |  | 36.7 | 
10 | 5.9 |  | COc1cccc(-c2nc(C(=O)n3cccn3)co2)c1 |  | 45.8 | 
11 | 28.9 |  | Cc1cc(C)n(C(=O)c2coc(-c3cccc(O)c3)n2)n1 |  | 78.4 | 
12 | 3.2 | 8.4 | COc1ccc(-c2nc(C(=O)n3cccn3)co2)cc1 | 22.4 | 20.8 | 26.1
13 | 40.8 |  | Cc1cc(C)n(C(=O)c2coc(-c3cccc(F)c3)n2)n1 |  | 83.4 | 
14 | 15.8 |  | Cc1cc(C)n(C(=O)c2coc(-c3ccc(O)cc3)n2)n1 |  | 66.4 | 
15 | 45.1 |  | O=C(c1coc(-c2cccc(F)c2)n1)n1cccn1 |  | 99.6 | 
16 | 4.5 |  | COc1cccc(-c2nc(C(=O)n3nc(C)cc3C)co2)c1 |  | 18.7 | 
17 | 5.3 |  | O=C(c1coc(-c2ccc(Cl)cc2)n1)n1cccn1 |  | 40.1 | 
18 | 1.6 | 10.6 | COc1ccc(-c2nc(C(=O)n3nc(C)cc3C)co2)cc1 | 39.1 | 10.3 | 42.6
19 | 9.8 |  | O=C(c1coc(-c2ccc(F)cc2)n1)n1cccn1 |  | 54.8 | 
20 | 54.8 |  | Cc1cc(C)n(C(=O)c2coc(-c3ccccc3O)n2)n1 |  | 139 | 
21 | 88.7 |  | O=C(c1coc(-c2ccccc2)n1)n1cccn1 |  | 199 | 
22 | 75.8 |  | Cc1cc(C)n(C(=O)c2coc(-c3ccccc3)n2)n1 |  | 199 | 
23 | 58.7 |  | O=C(c1coc(-c2ccc(Br)cc2)n1)n1cccn1 |  | 187 | 
